Here are results for nine compounds from publication PMC5643385, “Probing ligand recognition of the opioid pan antagonist AT-076 at nociceptin, kappa, mu, and delta opioid receptors through structure-activity relationships” (Scientific Reports, 2017).

Assay [1] has as its target T1, human KOP receptor (Homo sapiens, UniProt P41145). As to the kind of experiment: Radioligand competition binding, [3H]U69,593, membranes of transfected CHO cells (Kappa-CN). On the technique in general: Loss of bound radioactivity is the signal in a displacement assay; it reports binding, not function.
Assay [2] deals with T2, human MOP receptor (Homo sapiens, UniProt P35372). Nature of the assay: Radioligand competition binding, [3H]DAMGO, membranes of transfected CHO cells.
For assay [3], the target named is T3, human DOP receptor (Homo sapiens, UniProt P41143). Nature of the assay: Radioligand competition binding, [3H]DPDPE, membranes of transfected CHO cells.
For assay [4], the target named is T1, human KOP receptor. Nature of the assay: biochemical.
Assay [5] deals with T2, human MOP receptor. As to the kind of experiment: biochemical.
Assay [6] deals with T3, human DOP receptor. Nature of the assay: [35S]GTPγS functional assay (intrinsic activity; Schild analysis vs DPDPE). Type of assay: biochemical. Particulars: inhibition of agonist-induced [35S]GTPγS binding, read-out: Antagonist Potency (pA2 ± SEM) DOP (converted). For orientation: GTPγS resists hydrolysis and so accumulates on activated G proteins.
Assay [7] has as its target T1, human KOP receptor. The arrangement: method as in PMID 25635572. As to conditions: Figure 1; cited from earlier work.
Assay [8] concerns the target T2, human MOP receptor. Particulars: read-out: MOP Ki; Figure 1; cited from earlier work.
Assay [9] has as its target T3, human DOP receptor. Particulars: read-out: DOP Ki; Figure 1; cited from earlier work.
Assay [10] has as its target T4, human NOP receptor (Homo sapiens, UniProt P41146). Nature of the assay: Radioligand competition binding, [3H]N/OFQ, membranes of transfected CHO cells.
For assay [11], the target named is T4, human NOP receptor. Nature of the assay: [35S]GTPγS functional assay (intrinsic activity; Schild analysis vs N/OFQ). Type of assay: biochemical.
A further assay relates to NOP. The arrangement: method as in PMID 16451050. As to conditions: Figure 1; cited from earlier work.
Assay [12] addresses T4, human NOP receptor. The arrangement: method as in PMID 25635572. As to conditions: Figure 1; cited from earlier work.
Where [13] appears, read: read-out: Receptor Binding, Ki DOP.

Read-outs that look alike come from different tables or passages of the source. Bounds are passed on as bounds.

Take `CC(C)[C@@H](CN1CCC(c2cccc(O)c2)CC1)NC(=O)[C@H]1Cc2ccc(O)cc2CN1` [1 (AT-076), (R)-7-hydroxy-N-((S)-1-(4-(3-hydroxyphenyl)piperidin-1-yl)-3-methylbutan-2-yl)-1,2,3,4-tetrahydroisoquinoline-3-carboxamide]: the Ki is 1.14 ± 0.63 nM on human KOP receptor [1] (read-out: Receptor Binding, Ki KOP); 1.67 ± 0.6 nM at human MOP receptor [2] (read-out: Receptor Binding, Ki MOP); 19.6 ± 1.3 nM at human DOP receptor [3] (setting [13]); 1.14 ± 0.63 nM on human KOP receptor [7]; 1.67 ± 0.6 nM at human MOP receptor [8]; 19.6 ± 1.3 nM at human DOP receptor [9]. Besides, the “Antagonist Potency (pA2 ± SEM) KOP” value on human KOP receptor [4] (cho cell membranes) turned out to be 8.366. Moreover, the “Antagonist Potency (pA2 ± SEM) MOP” value on human MOP receptor [5] (cho cell membranes) turned out to be 9.24. For the same compound, at human DOP receptor [6], the Kb was 26.9 nM.
`CC(C)[C@@H](CN1CCC(c2cccc(O)c2)CC1)NC(=O)[C@H]1Cc2ccc(C#N)cc2CN1` [Compound 2, (R)-7-cyano-N-((S)-1-(4-(3-hydroxyphenyl)piperidin-1-yl)-3-methylbutan-2-yl)-1,2,3,4-tetrahydroisoquinoline-3-carboxamide]: the Ki at human NOP receptor [10] ([3H]N/OFQ displacement, Cheng-Prusoff, mean ± SEM, at least three experiments in triplicate, read-out: Receptor Binding, Ki NOP) came out at 1890 ± 270 nM; on human KOP receptor [1], 6.73 ± 1.42 nM; on human MOP receptor [2], 81.7 ± 12.4 nM; on human DOP receptor [3], 73.7 ± 57.9 nM. The “Decrease in KOP binding affinity compared to AT-076” value at human KOP receptor [1] turned out to be 6 fold. Also, the “Profile in Schild analysis KOP” value at human KOP receptor [4] is reported as “N/C^#”.
`CC(C)[C@@H](CN1CCC(c2cccc(C#N)c2)CC1)NC(=O)[C@H]1Cc2ccc(O)cc2CN1` [Compound 8, (R)-N-((S)-1-(4-(3-cyanophenyl)piperidin-1-yl)-3-methylbutan-2-yl)-7-hydroxy-1,2,3,4-tetrahydroisoquinoline-3-carboxamide]: the Ki is 61.3 ± 14.6 nM on human NOP receptor [10], 3.86 ± 0.09 nM on human KOP receptor [1], 2.93 ± 0.67 nM on human MOP receptor [2] and 136 ± 59.7 nM at human DOP receptor [3] (setting [13]). Also, the Kb is 0.269 nM at human KOP receptor [4] and 8.13 nM at human MOP receptor [5].
Regarding `CC(C)[C@@H](CN1CCC(c2cccc(CN)c2)CC1)NC(=O)[C@H]1Cc2ccc(O)cc2CN1` [Compound 10, (R)-N-((S)-1-(4-(3-(aminomethyl)phenyl)piperidin-1-yl)-3-methylbutan-2-yl)-7-hydroxy-1,2,3,4-tetrahydroisoquinoline-3-carboxamide], the “Increase in NOP binding affinity compared to cyano precursor 8” value on human NOP receptor [10] was 2 fold. The Ki on human NOP receptor [10] is 30.7 ± 14.5 nM; on human KOP receptor [1], 1.08 ± 0.01 nM; on human MOP receptor [2], 0.68 ± 0.28 nM; on human DOP receptor [3] (setting [13]) it was 133 ± 24.9 nM. Further, the Kb at human NOP receptor [11] was 132 nM; at human KOP receptor [4] it was 0.38 nM; at human MOP receptor [5], 15.5 nM.
Take `CC(C)[C@@H](CN1CCC(c2cccc(CNC(=O)[C@@H](N)CCCNC(=N)N)c2)CC1)NC(=O)[C@H]1Cc2ccc(O)cc2CN1` [Compound 12, (R)-N-((S)-1-(4-(3-(((S)-2-amino-5-guanidinopentanamido)methyl)phenyl)piperidin-1-yl)-3-methylbutan-2-yl)-7-hydroxy-1,2,3,4-tetrahydroisoquinoline-3-carboxamide]: the Ki on human NOP receptor [10] is 6.04 ± 1.32 nM; at human KOP receptor [1], 2.11 ± 0.52 nM; on human MOP receptor [2] it was 5.67 ± 2.38 nM; at human DOP receptor [3], 53.6 ± 7.12 nM. For the same compound, the Kb at human NOP receptor [11] is 5.01 nM; on human KOP receptor [4], 0.158 nM; at human MOP receptor [5], 0.692 nM.
For the compound `CC(C)[C@@H](CN1CCC(c2cccc(CNC(=O)[C@@H](N)CCCNC(=N)N)c2)CC1)NC(=O)[C@H]1Cc2ccccc2CN1` [Compound 13, (R)-N-((S)-1-(4-(3-(((S)-2-amino-5-guanidinopentanamido)methyl)phenyl)piperidin-1-yl)-3-methylbutan-2-yl)-1,2,3,4-tetrahydroisoquinoline-3-carboxamide], the Ki at human NOP receptor [10] is 43.3 ± 19.1 nM; at human KOP receptor [1] it was 56.1 ± 5.38 nM; at human MOP receptor [2] ([3H]DAMGO displacement, Cheng-Prusoff, mean ± SEM, at least three experiments in triplicate, read-out: Receptor Binding, Ki MOP), 408 ± 37.3 nM; on human DOP receptor [3] (setting [13]), > 10000 nM.
With `CC(C)[C@@H](CN1CCC(C2CCCCC2)CC1)NC(=O)[C@H]1Cc2ccc(O)cc2CN1` [Compound 14, (R)-N-((S)-1-(4-cyclohexylpiperidin-1-yl)-3-methylbutan-2-yl)-7-hydroxy-1,2,3,4-tetrahydroisoquinoline-3-carboxamide], the Ki on human NOP receptor [10] stood at 84.4 ± 13.6 nM; at human KOP receptor [1], 0.253 ± 0.015 nM; on human MOP receptor [2], 2.79 ± 0.28 nM; on human DOP receptor [3], 12.4 ± 8 nM. Besides, the “Binding selectivity for KOP over DOP” value at human KOP receptor [1] is listed as 49 fold. Further, the “Binding selectivity for KOP over MOP” value on human KOP receptor [1] turned out to be 11 fold. The “Binding selectivity for KOP over NOP” value at human KOP receptor [1] amounted to 333 fold. Also, at human KOP receptor [1], the “Higher KOP affinity than AT-076” value is 2–4 fold. In addition, the values for the Kb at human KOP receptor [4], at human MOP receptor [5] and at human DOP receptor [6] were 0.0347 nM, 0.692 nM and 42.3 nM, respectively.
As for `O=C(NCCCN1CCC2(CC1)OCc1ccccc12)C1CCCN1Cc1ccccc1` (stereo not drawn) [Compound C-24], the IC50 in the assay on NOP was 0.27 ± 0.038 nM.
`CC(C)[C@@H](CN1CC[C@@](C)(c2cccc(O)c2)[C@@H](C)C1)NC(=O)[C@H]1Cc2ccc(O)cc2CN1` [JDTic, reference compound]: the Ki at human NOP receptor [10] (read-out: Receptor Binding, Ki NOP) is 16.7 ± 0.76 nM; at human NOP receptor [12] it was 16.7 ± 0.76 nM.

The term Ki denotes a dissociation constant, usually derived from enzyme kinetics or from competition with a known ligand. What is called IC50 is the midpoint of a concentration-inhibition curve.
